Key:
Tdp1 = target: T1, Tdp1 (Homo sapiens, UniProt Q9NUW8); experiment: Real-time detection of Tdp1 activity (5'-FAM/3'-BHQ1 oligonucleotide biosensor); assay type: biochemical; conditions: 1.5 nM Tdp1, 50 nM oligonucleotide substrate, 26 °C
T1 construct: made in house; host or cells: Escherichia coli
Text: We first studied the inhibition potency of our compounds to Tdp1 by using a real-time oligonucleotide biosensor assay that we have previously developed. The assay was based on the ability of Tdp1 to remove the fluorescence quencher from the 3’-end of DNA. The substrate is a 16-mer single-stranded oligonucleotide containing both a 5’-FAM fluorophore and a 3’-BHQ1 quencher.
A fluorophore quencher-coupled DNA-biosensor for real-time measurement of Tdp1 cleavage activity was recently designed in our laboratory. The biosensor is a 16-mer single-stranded oligonucleotide containing both a 5’-FAM fluorophore donor and a quenching 3’-BHQ1 moiety.
Recombinant protein Tdp1 was expressed in EsCherichia coli (pET 16B plasmid containing Tdp1 cDNA provided by Dr. K.W. Caldecott, University of Sussex, United Kingdom) and isolated as described. The reaction mixture in a final volume 200 μL contained Tdp1 reaction buffer (50 mM Tris-HCl, 50 mM NaCl, 7 mM β-mercaptoethanol), 50 nM oligonucleotide substrate, and varied concentrations of potential inhibitor. Purified Tdp1 was added in a final concentration of 1.5 nM.
The reaction mixtures were incubated at a constant temperature of 26 °C in a POLARstar OPTIMA fluorimeter, BMG LABTECH, GmbH, to measure fluorescence intensity every minute (Ex485/Em520 nm). Tdp1 inhibition was calculated by comparing the rate of increase in fluorescence of the biosensor in the presence of the compound to that of DMSO (1.5%) control wells. The measurements were carried out in at least two independent experiments. IC50 values were determined using a six-point concentration response curve. The data were imported into the MARS Data Analysis 2.0 program (BMG LABTECH) and the slope during the linear phase (data from 0 to 7 min) was calculated.

[1] = target: T2, recombinant Tdp1 (residues 149–608) (Homo sapiens, UniProt Q9NUW8); experiment: Intrinsic tryptophan fluorescence quenching binding assay; conditions: 10 µM Tdp1, 20 mM Tris, 250 mM NaCl, pH 8; triplicate
T2 construct: recombinant Tdp1 (residues 149–608) was obtained from GenScript; host or cells: E. coli BL21(DE3)
T2 sequence (Q9NUW8 149-608): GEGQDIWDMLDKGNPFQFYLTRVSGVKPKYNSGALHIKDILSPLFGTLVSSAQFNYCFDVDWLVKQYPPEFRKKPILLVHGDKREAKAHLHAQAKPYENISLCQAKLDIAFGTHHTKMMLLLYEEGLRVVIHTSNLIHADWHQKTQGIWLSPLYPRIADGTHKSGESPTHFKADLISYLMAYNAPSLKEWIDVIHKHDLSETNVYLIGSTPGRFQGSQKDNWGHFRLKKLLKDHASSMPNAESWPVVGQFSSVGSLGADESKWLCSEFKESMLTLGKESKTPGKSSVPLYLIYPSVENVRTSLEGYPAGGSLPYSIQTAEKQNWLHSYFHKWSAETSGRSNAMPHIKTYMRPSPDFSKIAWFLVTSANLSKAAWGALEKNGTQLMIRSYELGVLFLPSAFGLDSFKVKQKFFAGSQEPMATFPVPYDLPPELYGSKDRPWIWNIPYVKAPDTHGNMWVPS
Procedure: The binding of the synthesized compounds to recombinant Tdp1 was also tested (Table 1 and Table 2) by using an intrinsic tryptophan fluorescence quenching assay. […] As our compounds are aromatic in nature, there is a possibility that they may bind to both the active site as well as non-specifically to the DNA/peptide binding pockets. Nonetheless, our results confirmed that the compounds were indeed binders of Tdp1, thus complementing our inhibition data.
pET-28a(+) plasmid encoding recombinant Tdp1 (residues 149–608) was obtained from GenScript. E. coli BL21(DE3) was used for recombinant protein production. Protein production was induced with 1 mM IPTG at 28 °C with overnight incubation. Tdp1 was purified using affinity and size exclusion chromatography. Fluorescence was measured using a PerkinElmer EnSpire Multimode Reader. Tdp1 concentration was 10 μM with varying compound concentrations. The buffer was 20 mM Tris and 250 mM NaCl (pH 8). The excitation wavelength was 280 nm and intrinsic fluorescence was measured at 350 nm. Control experiments with Tdp1 or the compound on its own were also conducted. Background fluorescence arising from the compounds was subtracted from the final spectrum. The total volume per well was 30 μL. The dissociation constant (KD) was calculated using Equation (1), which takes non-specific binding into account. y = Bmaxx/(KD + x) + Nsx(1) where y denotes the changes in fluorescence intensity; x denotes the concentration of the compounds; Bmax denotes the maximum changes in fluorescence intensity; and Ns is a scaling factor for non-specific binding. Experiments were conducted in triplicate.

T1 sequence (Q9NUW8 whole entry): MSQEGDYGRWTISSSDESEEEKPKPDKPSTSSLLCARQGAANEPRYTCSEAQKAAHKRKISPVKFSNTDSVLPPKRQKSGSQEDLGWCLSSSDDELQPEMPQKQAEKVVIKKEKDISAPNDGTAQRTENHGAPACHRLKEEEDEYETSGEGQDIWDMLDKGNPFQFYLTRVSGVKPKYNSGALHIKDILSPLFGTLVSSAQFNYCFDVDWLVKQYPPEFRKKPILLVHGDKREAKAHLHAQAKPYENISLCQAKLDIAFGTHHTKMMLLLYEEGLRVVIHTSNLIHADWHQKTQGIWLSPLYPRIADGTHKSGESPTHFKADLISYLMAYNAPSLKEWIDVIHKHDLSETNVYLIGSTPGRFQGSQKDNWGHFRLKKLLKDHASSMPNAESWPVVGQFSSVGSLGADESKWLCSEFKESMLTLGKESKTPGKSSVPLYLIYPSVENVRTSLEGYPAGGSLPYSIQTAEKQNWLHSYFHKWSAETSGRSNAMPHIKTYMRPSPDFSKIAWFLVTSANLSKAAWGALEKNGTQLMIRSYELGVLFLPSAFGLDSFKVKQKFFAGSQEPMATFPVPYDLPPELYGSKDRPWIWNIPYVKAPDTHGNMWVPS

Compound | IC50 (Tdp1) [nM] | Kd [1] [nM]
CC(=O)C1=C(O)C=C2Oc3c(-c4csc(N/N=C/c5ccncc5)n4)c(O)c(C)c(O)c3[C@@]2(C)C1=O [(+)-16a, 4-[(1E)-(2-{4-[(1R)-12-Acetyl-3,5,11-trihydroxy-1,4-dimethyl-13-oxo-8-oxatricyclo[7.4.0.0^2,7]trideca-2(7),3,5,9,11-pentaen-6-yl]-1,3-thiazol-2-yl}hydrazin-1-ylidene)methyl]pyridin-1-ium bromide] | 160 ± 16 | 139000 ± 32000
CC(=O)C1=C(O)C=C2Oc3c(-c4csc(N/N=C/c5ccccn5)n4)c(O)c(C)c(O)c3[C@@]2(C)C1=O [(+)-16b, 2-[(1E)-(2-{4-[(1R)-12-Acetyl-3,5,11-trihydroxy-1,4-dimethyl-13-oxo-8-oxatricyclo[7.4.0.0^2,7]trideca-2(7),3,5,9,11-pentaen-6-yl]-1,3-thiazol-2-yl}hydrazin-1-ylidene)methyl]pyridin-1-ium bromide] | 492 ± 88 | 77000 ± 24000
CC(=O)C1=C(O)C=C2Oc3c(-c4csc(N/N=C/c5ccc([N+](=O)[O-])s5)n4)c(O)c(C)c(O)c3[C@@]2(C)C1=O [(+)-16d, (2R)-4-Acetyl-5,11,13-trihydroxy-2,12-dimethyl-10-{2-[(E)-2-[(5-nitrothiophen-2-yl)methylidene]hydrazin-1-yl]-1,3-thiazol-4-yl}-8-oxatricyclo[7.4.0.0^2,7]trideca-1(9),4,6,10,12-pentaen-3-one] | 70 ± 4 | 597000 ± 98000
CC(=O)C1=C(O)C=C2Oc3c(-c4csc(N/N=C/c5ccco5)n4)c(O)c(C)c(O)c3[C@@]2(C)C1=O [(+)-16k, (2R)-4-Acetyl-5,11,13-trihydroxy-2,12-dimethyl-10-{2-[(E)-2-[(furan-2-yl)methylidene] hydrazin-1-yl]-1,3-thiazol-4-yl}-8-oxatricyclo[7.4.0.0^2,7]trideca-1(9),4,6,10,12-pentaen-3-one] | 120 ± 15 | 67000 ± 9000
CC(=O)C1=C(O)C=C2Oc3c(-c4csc(N/N=C/c5cccn5C)n4)c(O)c(C)c(O)c3[C@@]2(C)C1=O [(+)-16n, (2R)-4-Acetyl-5,11,13-trihydroxy-2,12-dimethyl-10-{2-[(E)-2-[(1-methyl-pyrrol-2-yl)methylidene]hydrazin-1-yl]-1,3-thiazol-4-yl}-8-oxatricyclo[7.4.0.0^2,7]trideca-1(9),4,6,10,12-pentaen-3-one] | 151 ± 14 | 719000 ± 17000
CC(=O)C1=C(O)C=C2Oc3c(-c4csc(N/N=C/c5cnc[nH]5)n4)c(O)c(C)c(O)c3[C@@]2(C)C1=O [(+)-16o, 5-[(1E)-(2-{4-[(1R)-12-Acetyl-3,5,11-trihydroxy-1,4-dimethyl-13-oxo-8-oxatricyclo[7.4.0.0^2,7]trideca-2(7),3,5,9,11-pentaen-6-yl]-1,3-thiazol-2-yl}hydrazin-1-ylidene)methyl]-1H-imidazol-1-ium bromide] | 1690 ± 890 | 38000 ± 2000
CC(=O)C1=C(O)C=C2Oc3c(-c4csc(N/N=C/c5c[nH]c6ccccc56)n4)c(O)c(C)c(O)c3[C@@]2(C)C1=O [(+)-16p, (2R)-4-Acetyl-5,11,13-trihydroxy-2,12-dimethyl-10-{2-[(E)-2-[(1H-indole-3-yl)methylidene] hydrazin-1-yl]-1,3-thiazol-4-yl}-8-oxatricyclo[7.4.0.0^2,7]trideca-1(9),4,6,10,12-pentaen-3-one] | 138 ± 3 | 268000 ± 11000
CC(=O)C1=C(O)C=C2Oc3c(-c4csc(N/N=C/c5ccc(-c6cccc(Cl)c6)o5)n4)c(O)c(C)c(O)c3[C@@]2(C)C1=O [(+)-16r, (2R)-4-Acetyl-10-{2-[(E)-2-{[5-(3-chlorophenyl)furan-2-yl]methylidene}hydrazin-1-yl]-1,3-thiazol-4-yl}-5,11,13-trihydroxy-2,12-dimethyl-8-oxatricyclo[7.4.0.0^2,7]trideca-1(9),4,6,10,12-pentaen-3-one] | 55 ± 8 | 113000 ± 52000
COc1ccc(/C=N/Nc2nc(-c3c(O)c(C)c(O)c4c3OC3=CC(O)=C(C(C)=O)C(=O)[C@@]34C)cs2)cc1COc1ccc(F)cc1 [(+)-17a, (2R)-4-Acetyl-10-{2-[(E)-2-({3-[(4-fluorophenoxy)methyl]-4-methoxyphenyl}methylidene)hydrazin-1-yl]-1,3-thiazol-4-yl}-5,11,13-trihydroxy-2,12-dimethyl-8-oxatricyclo[7.4.0.0^2,7]trideca-1(9),4,6,10,12-pentaen-3-one] | 26 ± 8 | 212000 ± 25000
COc1ccc(/C=N/Nc2nc(-c3c(O)c(C)c(O)c4c3OC3=CC(O)=C(C(C)=O)C(=O)[C@]34C)cs2)cc1COc1cccc(F)c1 [(−)-17b, (2S)-4-Acetyl-10-{2-[(E)-2-({3-[(3-fluorophenoxy)methyl]-4-methoxyphenyl}methylidene)hydrazin-1-yl]-1,3-thiazol-4-yl}-5,11,13-trihydroxy-2,12-dimethyl-8-oxatricyclo[7.4.0.0^2,7]trideca-1(9),4,6,10,12-pentaen-3-one] | 78 ± 3 | –
COc1ccc(/C=N/Nc2nc(-c3c(O)c(C)c(O)c4c3OC3=CC(O)=C(C(C)=O)C(=O)[C@]34C)cs2)cc1CSc1cc(C)ccc1C(C)(C)C [(−)-17g, (2S)-4-Acetyl-10-{2-[(E)-2-[(3-{[(2-tert-butyl-5-methylphenyl)sulfanyl]methyl}-4-methoxyphenyl)methylidene]hydrazin-1-yl]-1,3-thiazol-4-yl}-5,11,13-trihydroxy-2,12-dimethyl-8-oxatricyclo[7.4.0.0^2,7]trideca-1(9),4,6,10,12-pentaen-3-one] | 94 ± 20 | –
COc1ccc(/C=N/Nc2nc(-c3c(O)c(C)c(O)c4c3OC3=CC(O)=C(C(C)=O)C(=O)[C@]34C)cs2)cc1COc1ccc(Cl)c(C)c1 [(−)-17h, (2S)-4-Acetyl-10-{2-[(E)-2-({3-[(4-chloro-3-methylphenoxy)methyl]-4-methoxyphenyl}methylidene)hydrazin-1-yl]-1,3-thiazol-4-yl}-5,11,13-trihydroxy-2,12-dimethyl-8-oxatricyclo[7.4.0.0^2,7]trideca-1(9),4,6,10,12-pentaen-3-one] | 48 ± 2 | –
COc1ccc(/C=N/Nc2nc(-c3c(O)c(C)c(O)c4c3OC3=CC(O)=C(C(C)=O)C(=O)[C@]34C)cs2)cc1CN1CCN(c2ccc(F)cc2)CC1 [(−)-17i, (2S)-4-Acetyl-10-{2-[(E)-2-[(3-{[4-(4-fluorophenyl)piperazin-1-yl]methyl}-4-methoxyphenyl)methylidene]hydrazin-1-yl]-1,3-thiazol-4-yl}-5,11,13-trihydroxy-2,12-dimethyl-8-oxatricyclo[7.4.0.0^2,7]trideca-1(9),4,6,10,12-pentaen-3-one] | 59 ± 5 | –
COc1ccc(/C=N/Nc2nc(-c3c(O)c(C)c(O)c4c3OC3=CC(O)=C(C(C)=O)C(=O)[C@]34C)cs2)cc1CN1CCN(c2ccccc2OC)CC1 [(−)-17j, (2S)-4-Acetyl-10-{2-[(E)-2-[(3-{[4-(2-methoxyphenyl)piperazin-1-yl]methyl}-4-methoxyphenyl)methylidene]hydrazin-1-yl]-1,3-thiazol-4-yl}-5,11,13-trihydroxy-2,12-dimethyl-8-oxatricyclo[7.4.0.0^2,7]trideca-1(9),4,6,10,12-pentaen-3-one] | 71 ± 15 | –
(2R)-4-Acetyl-5,11,13-trihydroxy-2,12-dimethyl-10-{2-[(E)-2-[(1H-2-methyl-indole-3-yl) methylidene]hydrazin-1-yl]-1,3-thiazol-4-yl}-8-oxatricyclo[7.4.0.0^2,7]trideca-1(9),4,6,10,12-pentaen-3-one [(+)-16q] | 21 ± 6 | –
